The values that follow come from patent US20260317324A1, “BIFUNCTIONAL COMPOUNDS FOR DEGRADING BRAF VIA UBIQUITIN PROTEOSOME PATHWAY” (Nurix Therapeutics, Inc., priority 2023, published 2026).

Bounds are passed on as bounds.

This experiment deals with T1, BRAF V600E (Homo sapiens, UniProt P15056, V600E).
T1 construct: endogenous C-terminal HiBiT fusion tag on BRAF V600E allele; endogenous in cells; host or cells: A375 clone 1F10 (CRISPR-Cas9 knock-in of the HiBiT tag; parental A375 from ATCC)
Description: BRAF HiBiT degradation assay, C-terminal HiBiT-tagged BRAF V600E A375 cells (clone 1F10), Nano-Glo HiBiT Lytic assay. The class given is cell-based. To be noted: A375 (BRAF V600E); for DC50: DC50 at 50%: fitted conc. at Y=50; for Dmax: A-375, percentage protein degraded at maximal compound effect relative to DMSO. The procedure, abridged: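 A375 cells with CRISPR knock-in C-terminal HiBiT on endogenous BRAF V600E (clone 1F10) were seeded and cultured 24 h at 37 °C, then dosed with an 11-point half-log series (1 μM to 0.01 nM, duplicate, 0.2% DMSO). Lytic HiBiT luminescence gave % protein remaining; DC50 was the fitted concentration at 50%.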
(In general: With HiBiT, luminescence reflects the tagged protein that the partner subunit can reach.)

T1 sequence (P15056 whole entry V600E, the tested form may be a part): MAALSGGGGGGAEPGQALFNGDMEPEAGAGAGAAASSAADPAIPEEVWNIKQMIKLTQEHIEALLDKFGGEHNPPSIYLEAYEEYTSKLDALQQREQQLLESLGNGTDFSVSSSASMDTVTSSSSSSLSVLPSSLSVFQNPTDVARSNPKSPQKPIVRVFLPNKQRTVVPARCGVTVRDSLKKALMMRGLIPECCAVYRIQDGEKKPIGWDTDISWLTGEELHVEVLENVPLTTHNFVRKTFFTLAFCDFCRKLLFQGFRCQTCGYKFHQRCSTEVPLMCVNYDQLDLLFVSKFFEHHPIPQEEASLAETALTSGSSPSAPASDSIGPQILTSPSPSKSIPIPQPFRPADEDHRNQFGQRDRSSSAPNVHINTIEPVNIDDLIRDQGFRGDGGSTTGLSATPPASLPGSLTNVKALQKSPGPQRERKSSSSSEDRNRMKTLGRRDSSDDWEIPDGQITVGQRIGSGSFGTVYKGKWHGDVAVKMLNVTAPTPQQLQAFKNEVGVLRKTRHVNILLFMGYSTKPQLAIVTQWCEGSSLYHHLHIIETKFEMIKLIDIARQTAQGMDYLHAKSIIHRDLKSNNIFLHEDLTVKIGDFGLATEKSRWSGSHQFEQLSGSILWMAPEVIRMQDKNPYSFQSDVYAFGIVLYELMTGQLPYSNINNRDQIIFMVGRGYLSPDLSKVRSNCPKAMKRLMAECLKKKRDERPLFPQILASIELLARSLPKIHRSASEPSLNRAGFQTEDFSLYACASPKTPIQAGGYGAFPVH

`CCCS(=O)(=O)Nc1cccc(-c2nc(C(C)(C)C)sc2-c2ccnc(NCC3CCN(CC4CCN(c5ccc([C@H]6CCC(=O)NC6=O)cc5)CC4)CC3)n2)c1F` [Compound 145, N-[3-(2-tert-butyl-5-{2-[({1-[(1-{4-[(3R)-2,6-dioxopiperidin-3-yl]phenyl}piperidin-4-yl)methyl]piperidin-4-yl}methyl)amino]pyrimidin-4-yl}-1,3-thiazol-4-yl)-2-fluorophenyl]propane-1-sulfonamide]: the DC50 (in general, the midpoint of the concentration-degradation curve) is above 500 nM and the Dmax – broadly, the greatest extent of degradation seen – was 30 to 70%.

`CCCS(=O)(=O)Nc1cccc(-c2nc(C(C)(C)C)sc2-c2ccnc(Nc3ccc4c(c3)CCN(C(=O)[C@@H]3CCN(c5ccc(C6CCC(=O)NC6=O)cn5)C3)C4)n2)c1F` (mixture of isomers) [Compound 121, N-(3-{2-tert-butyl-5-[2-({2-[(3R)-1-{5-[(3RS)-2,6-dioxopiperidin-3-yl]pyridin-2-yl}pyrrolidine-3-carbonyl]-1,2,3,4-tetrahydroisoquinolin-6-yl}amino)pyrimidin-4-yl]-1,3-thiazol-4-yl}-2-fluorophenyl)propane-1-sulfonamide] returned a DC50 of 50 to 500 nM and a maximal degradation (Dmax) of 30 to 70%.

Regarding `CCCS(=O)(=O)Nc1cccc(-c2nc(C(C)(C)C)sc2-c2ccnc(Nc3cccc(OC4CCN(C(=O)CN5CCN(c6cc(C7CCC(=O)NC7=O)ccn6)CC5)CC4)c3)n2)c1F` (racemic) [Compound 93, Rac-N-{3-[2-tert-butyl-5-(2-{[3-({1-[2-(4-{4-[(3R)-2,6-dioxopiperidin-3-yl]pyridin-2-yl}piperazin-1-yl)acetyl]piperidin-4-yl}oxy)phenyl]amino}pyrimidin-4-yl)-1,3-thiazol-4-yl]-2-fluorophenyl}propane-1-sulfonamide], the half-maximal degradation concentration (DC50) fell in the range of 10 to 50 nM and the Dmax was in the range of 30 to 70%.

`CCCS(=O)(=O)Nc1cccc(-c2nc(C(C)(C)C)sc2-c2ccnc(N[C@H]3CC[C@H](N4CCN(CC5CCN(c6ccc(C7CCC(=O)NC7=O)cn6)CC5)CC4)CC3)n2)c1F` (mixture of isomers) [Compound 135, N-{3-[2-tert-butyl-5-(2-{[(1r,4r)-4-{4-[(1-{5-[(3RS)-2,6-dioxopiperidin-3-yl]pyridin-2-yl}piperidin-4-yl)methyl]piperazin-1-yl}cyclohexyl]amino}pyrimidin-4-yl)-1,3-thiazol-4-yl]-2-fluorophenyl}propane-1-sulfonamide] showed a DC50 of 50 to 500 nM and a maximal degradation (Dmax) of 30 to 70%.

On to `CCCS(=O)(=O)Nc1cccc(-c2nc(C3CCC4(CC3)CN(C(=O)CN3CCC5(CC3)CN(c3ccc6c(c3)C(=O)N(C3CCC(=O)NC3=O)C6=O)C5)C4)sc2-c2ccnc(N)n2)c1F` (racemic) [Compound 236, Rac-N-{3-[5-(2-aminopyrimidin-4-yl)-2-{2-[2-(2-{2-[(3R)-2,6-dioxopiperidin-3-yl]-1,3-dioxo-2,3-dihydro-1H-isoindol-5-yl}-2,7-diazaspiro[3.5]nonan-7-yl)acetyl]-2-azaspiro[3.5]nonan-7-yl}-1,3-thiazol-4-yl]-2-fluorophenyl}propane-1-sulfonamide], for which the DC50 is below 10 nM and the Dmax is above 70%.

`CCCS(=O)(=O)Nc1cccc(-c2nc(C(C)(C)C)sc2-c2ccnc(NC3CC4(C3)CN(C(=O)CCCCCc3ccc5c(c3)C(=O)N(C3CCC(=O)NC3=O)C5)C4)n2)c1F` (racemic) [Compound 150, Rac-N-{3-[2-tert-butyl-5-(2-{[2-(6-{2-[(3R)-2,6-dioxopiperidin-3-yl]-3-oxo-2,3-dihydro-1H-isoindol-5-yl}hexanoyl)-2-azaspiro[3.3]heptan-6-yl]amino}pyrimidin-4-yl)-1,3-thiazol-4-yl]-2-fluorophenyl}propane-1-sulfonamide] showed a DC50 of 50 to 500 nM and a Dmax of 30 to 70%.

Take `CCCS(=O)(=O)Nc1cccc(-c2nc(C(C)(C)C)sc2-c2ccnc(N[C@H]3CC[C@H](N4CCN(C(=O)C5CCN(c6ccc(C7CCC(=O)NC7=O)cn6)CC5)CC4)CC3)n2)c1F` (mixture of isomers) [Compound 137, N-{3-[2-tert-butyl-5-(2-{[(1r,4r)-4-[4-(1-{5-[(3RS)-2,6-dioxopiperidin-3-yl]pyridin-2-yl}piperidine-4-carbonyl)piperazin-1-yl]cyclohexyl]amino}pyrimidin-4-yl)-1,3-thiazol-4-yl]-2-fluorophenyl}propane-1-sulfonamide]: the DC50 was 50 to 500 nM and the Dmax is 30 to 70%.

As to `CCCS(=O)(=O)Nc1cccc(-c2nc(C(C)(C)C)sc2-c2ccnc(Nc3cccc(OC4CCN(C(=O)[C@H]5CC[C@H](Oc6ccc(C7CCC(=O)NC7=O)cc6)CC5)CC4)c3)n2)c1F` (mixture of isomers) [Compound 98, N-{3-[2-tert-butyl-5-(2-{[3-({1-[(1r,4r)-4-{4-[(3RS)-2,6-dioxopiperidin-3-yl]phenoxy}cyclohexanecarbonyl]piperidin-4-yl}oxy)phenyl]amino}pyrimidin-4-yl)-1,3-thiazol-4-yl]-2-fluorophenyl}propane-1-sulfonamide], the DC50 lay in the range of 10 to 50 nM and the Dmax was 30 to 70%.

With `CCCS(=O)(=O)Nc1cccc(-c2nc(C(C)(C)C)sc2-c2ccnc(Nc3cnn(CC4CCN(CC[C@@H]5CCN(c6ccc(C7CCC(=O)NC7=O)cn6)C5)CC4)c3)n2)c1F` (mixture of isomers) [Compound 81, N-(3-{2-tert-butyl-5-[2-({1-[(1-{2-[(3R)-1-{5-[(3RS)-2,6-dioxopiperidin-3-yl]pyridin-2-yl}pyrrolidin-3-yl]ethyl}piperidin-4-yl)methyl]-1H-pyrazol-4-yl}amino)pyrimidin-4-yl]-1,3-thiazol-4-yl}-2-fluorophenyl)propane-1-sulfonamide], the DC50 lay within 10 to 50 nM and the Dmax was above 70%.

Consider `CCCS(=O)(=O)Nc1cccc(-c2nc(C3CCN(CC4CCN(C(=O)CN5CCc6cc(C7CCC(=O)NC7=O)ccc6C5)CC4)CC3)sc2-c2ccnc(N)n2)c1F` (racemic) [Compound 226, Rac-N-{3-[5-(2-aminopyrimidin-4-yl)-2-(1-{[1-(2-{6-[(3R)-2,6-dioxopiperidin-3-yl]-1,2,3,4-tetrahydroisoquinolin-2-yl}acetyl)piperidin-4-yl]methyl}piperidin-4-yl)-1,3-thiazol-4-yl]-2-fluorophenyl}propane-1-sulfonamide], for which the DC50 was in the range of 50 to 500 nM and the Dmax was in the range of 30 to 70%.

Compound `CCCS(=O)(=O)Nc1cccc(-c2nc(C(C)(C)C)sc2-c2ccnc(NC3CC4(C3)CN(C(=O)CN3CCN(CCCc5cccc6c5C(=O)N(C5CCC(=O)NC5=O)C6=O)CC3)C4)n2)c1F` (racemic) [Compound 148, Rac-N-[3-(2-tert-butyl-5-{2-[(2-{2-[4-(3-{2-[(3R)-2,6-dioxopiperidin-3-yl]-1,3-dioxo-2,3-dihydro-1H-isoindol-4-yl}propyl)piperazin-1-yl]acetyl}-2-azaspiro[3.3]heptan-6-yl)amino]pyrimidin-4-yl}-1,3-thiazol-4-yl)-2-fluorophenyl]propane-1-sulfonamide] gave a DC50 above 500 nM and a Dmax of 30 to 70%.

`CCCS(=O)(=O)Nc1cccc(-c2nc(C3CCN(C(=O)C4(C)CCN(C(=O)C5CCN(c6ccc(C7CCC(=O)NC7=O)cn6)CC5)CC4)CC3)sc2-c2ccncc2)c1F` (racemic) [Compound 182, Rac-N-[3-(2-{1-[1-(1-{5-[(3R)-2,6-dioxopiperidin-3-yl]pyridin-2-yl}piperidine-4-carbonyl)-4-methylpiperidine-4-carbonyl]piperidin-4-yl}-5-(pyridin-4-yl)-1,3-thiazol-4-yl)-2-fluorophenyl]propane-1-sulfonamide] gave a DC50 below 10 nM and a Dmax above 70%.

As for `CCCS(=O)(=O)Nc1cccc(-c2nc(C3CCN(C(=O)C4CCN(C(=O)C5CCN(c6ccc([C@@H]7CCC(=O)NC7=O)cc6)CC5)CC4)CC3)sc2-c2ccncc2)c1F` [Compound 200, N-[3-(2-{1-[1-(1-{4-[(3S)-2,6-dioxopiperidin-3-yl]phenyl}piperidine-4-carbonyl)piperidine-4-carbonyl]piperidin-4-yl}-5-(pyridin-4-yl)-1,3-thiazol-4-yl)-2-fluorophenyl]propane-1-sulfonamide], the DC50 fell in the range of 10 to 50 nM and the Dmax is above 70%.

`CCCS(=O)(=O)Nc1cccc(-c2nc(C3CCC4(CC3)CCN(C(=O)CN3CCN(c5ccc6c(c5)C(=O)N(C5CCC(=O)NC5=O)C6=O)CC3)CC4)sc2-c2ccnc(N)n2)c1F` (racemic) [Compound 231, Rac-N-{3-[5-(2-aminopyrimidin-4-yl)-2-{3-[2-(4-{2-[(3R)-2,6-dioxopiperidin-3-yl]-1,3-dioxo-2,3-dihydro-1H-isoindol-5-yl}piperazin-1-yl)acetyl]-3-azaspiro[5.5]undecan-9-yl}-1,3-thiazol-4-yl]-2-fluorophenyl}propane-1-sulfonamide] registered a DC50 below 10 nM and a Dmax of 30 to 70%.

In the case of `CCCS(=O)(=O)Nc1cccc(-c2nc(C)sc2-c2ccnc(Nc3ccc(N4CCN(CC5(F)CCN(c6ccc(C7CCC(=O)NC7=O)cc6)CC5)CC4)cc3)n2)c1F` (racemic) [Compound 31, Rac-N-[3-(5-{2-[(4-{4-[(1-{4-[(3R)-2,6-dioxopiperidin-3-yl]phenyl}-4-fluoropiperidin-4-yl)methyl]piperazin-1-yl}phenyl)amino]pyrimidin-4-yl}-2-methyl-1,3-thiazol-4-yl)-2-fluorophenyl]propane-1-sulfonamide], the DC50 is 10 to 50 nM and the Dmax is above 70%.
